Values quoted from earlier work as cited in patent US20050220774A1, “Methods of inducing differentiation in ex vivo expanded stem cells” (priority 2002, published 2005).

Tests used:
stem cells = details: PCT/IL03/00064

Compound	clonability of long-term cultures (CD34+ cells; long-term cultures (3-5 weeks))	cell clonability and percentage of CD34+ cells (CD34+ cells; with early-acting or early and late acting cytokines)	differentiation of stem cells ex vivo (stem cells)
NCCNCCNCCNCCN [TEPA, tetraethylenepentamine]	more efficient clonability	significant increases	–
NC(=O)c1cccnc1 [nicotinamide]	–	–	represses the process of differentiation of stem cells
